# Laboratory results taken from article PMC10254233, “Synthesis and In Vitro Biological Evaluation of p-Carborane-Based Di-tert-butylphenol Analogs” (Molecules, 2023).
# Experiments:
# ovine COX-1 = target: T1, ovine COX-1 (Ovis aries, UniProt P05979); assay: COX Fluorescent Inhibitor Screening Assay, COX-1; assay type: biochemical; conditions: in duplicate
# T1 construct: purchased Cayman Chemical Company
# T1 sequence (P05979 25-600): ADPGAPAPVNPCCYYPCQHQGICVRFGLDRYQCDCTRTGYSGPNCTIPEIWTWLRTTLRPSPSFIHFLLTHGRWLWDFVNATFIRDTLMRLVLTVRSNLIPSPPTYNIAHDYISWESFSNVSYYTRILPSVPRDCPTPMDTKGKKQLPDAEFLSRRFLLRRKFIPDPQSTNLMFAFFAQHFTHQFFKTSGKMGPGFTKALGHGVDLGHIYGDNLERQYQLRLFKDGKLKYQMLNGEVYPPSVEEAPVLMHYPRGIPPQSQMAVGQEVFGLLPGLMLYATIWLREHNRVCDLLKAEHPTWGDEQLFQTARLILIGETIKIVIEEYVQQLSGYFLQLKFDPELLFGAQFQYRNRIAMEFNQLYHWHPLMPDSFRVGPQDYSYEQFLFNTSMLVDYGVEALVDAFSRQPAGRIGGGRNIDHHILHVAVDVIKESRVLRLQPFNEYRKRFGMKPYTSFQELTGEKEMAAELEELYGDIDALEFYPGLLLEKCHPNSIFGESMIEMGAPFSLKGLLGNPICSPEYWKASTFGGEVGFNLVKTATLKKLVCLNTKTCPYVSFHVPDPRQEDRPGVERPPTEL
# Method: COX inhibition activity against ovine COX-1 and human COX-2 was determined using the fluorescence-based COX assay COX Fluorescent Inhibitor Screening Assay Kit (Cayman Chemical Company, Ann Arbor, MI, USA) according to the manufacturer’s instructions as previously reported by us. All compounds were screened at a concentration of 100 µM in duplicate.
# [1] = test system: primary peritoneal exudate cells; assay: Viability of primary peritoneal exudate cells, CV assay; assay type: cell-based; conditions: 72 h, cells from healthy mice
# Method: All cells were kept at 37 °C in a humidified atmosphere with 5% CO2.
# Primary peritoneal exudates cells (PEC) isolated from C57BL/6 mice were used to estimate the selec-
# Mice were obtained from the animal facility at the Institute for Biological Research “Siniša Stanković” - National Institute of the Republic of Serbia, University of Belgrade (Belgrade, Serbia). PEC were cultivated in HEPES-buffered (HEPES = 4-
# 5% heat-inactivated fetal bovine serum (FBS) and antibiotics under standard growth conditions (37 °C, 5% CO2). For viability determination cells were seeded at a density of 2 x 10^5 cells/well in 96-well plates.
# Non-adherent cells were removed two hours after seeding and treatment was applied. Cell viability was determined after 72 h using a crystal violet (CV) assay.
# the indicated concentrations for 72 h. Cell viability was determined by the CV test. The data are presented as a mean ± SD from one repre-
# sentative out of three independent experiments. *p<0.05 refer to untreated cultures.
# HCT116 cells [2] = assay: Cell proliferation assay (CFSE staining); assay type: cell-based, human; conditions: HCT116, IC50 dose, 72 h, compared to R-830
# HCT116 cells [3] = assay: Co-treatment with autophagy inhibitors, CV assay; assay type: cell-based, human; conditions: HCT116, 50 µM with 20 µM chloroquine or 1 mM 3-MA, 72 h
# Source text: This means that the cytotoxic activity of the tested drug is enhanced by the inhibition of autophagy.
# (G) HCT116 cells were co-treated with R-830-Cb and 3-methyladenine (3-MA) or chloroquine and viability was estimated by crystal violet (CV) assay. * p < 0.05; *** p < 0.001 in comparison to relevant control.
# 1.1.3. Measurement of reactive oxygen and nitrogen species (ROS/RNS) generation Dihydrorhodamine 123 (DHR) staining was used for detection of production of ROS/RNS species.
# (§1) Finally, after 72 h incubation, cells were washed, tryp-sinized, and analyzed using flow cytometry (CyFlow® Space Partec using the PartecFloMax® software […]
# 1.1.4. PI staining on chamber slides […]
# (§2) (30 µM) and R-830-Cb (50 µM)). […] Finally, for covering the slides fluorescent mounting medium was used and slides were ana-lyzed with Zeiss AxioObserver Z1 inverted fluorescence microscope (Carl Zeiss AG, Oberkochen, Ger-many) at 400 x magnification.
# (§3) 1.1.5. Evaluation of the role of detected autophagy
# (§4) Concomitant treatment of R-830-Cb and autophagy inhibitors chloroquine and 3-MA was performed to determine the nature of detected autophagy. […] Cell viability was evaluated using CV assay after 72 h. […]
# Finally, after 72 h incubation, cells were tripsynized, washed, resuspended in PBS, and analyzed by flow cytometry (CyFlow® Space Partec using the PartecFloMax® software (Munster, Germany)).
# HCT116 cells [4] = assay: ROS/RNS generation, DHR 123 staining; assay type: cell-based, human; conditions: HCT116, IC50 dose, 72 h
# Source text: Apostat staining confirmed that apoptosis was in correlation with the activation of caspases (Figure 3C). […] The […] production of reactive oxygen species explains the observed effects of the applied treatments, namely inhibition of proliferation and induction of apoptosis (Figure 3E). It is widely accepted that drug-mediated hyperproduction of reactive oxygen species that are not buffered by cellular anti-oxidative protection is responsible for cell death induction. […] The described feature is acquired during disease progression, and it is tightly connected with abnormal blood supply and a hypoxic microenvironment. Therefore, elimination of these molecules results in a rapid decrease in cell viability. […]
# as §1, §2, §3, §4
Substance,% Inhibition at 100 µM COX-1 (ovine COX-1),viability of primary peritoneal exudate cells [1],cell division (CFSE) (HCT116 cells [2]),cell viability on co-treatment with chloroquine or 3-MA (HCT116 cells [3]),reactive oxygen species production (HCT116 cells [4])
"(3E)-1-Hydroxy-12-(methylene-[2′-ethylisothiazolidine-1′,1′-dioxide])-1,12-dicarba-closo-dodecaborane(12) [Compound S-2474-Cb]",n.i. (n.i. = no inhibition (%inhibition below 5%)),–,–,–,–
"1-Hydroxy-12-(thiophen-2′-carbonyl)-1,12-dicarba-closo-dodecaborane(12) [Compound R-830-Cb]",18%,completely non-toxic in the applied dose range,more severely affected,suppression of the autophagy process caused a drug-induced decrease in cell viability,potent inhibition of ROS
"(3E)-1-Hydroxy-12-(methylene-[1′-methoxypyrrolidine-2′-one])-1,12-dicarba-closo-dodecaborane(12) [Compound E-5110-Cb]",n.i. (n.i. = no inhibition (%inhibition below 5%)),–,–,–,–
"(3E)-1-Hydroxy-12-(methylene-[dihydrofurane-2′(3H)-one])-1,12-dicarba-closo-dodecaborane(12) [KME-4-Cb]",26%,–,–,–,–
